Test [1] relates to logarithmic phase C. albicans (MC295) containing HWP1-lacZ. The experiment in a line: microbe, parasite or virus in culture. The class given is cell-based. The conditions noted are these: Candida albicans, read-out: C. albicans LOG IC50, logarithmic phase growth invasion assay (converted).
Test [2] has as its system stationary phase C. albicans (MC295) containing HWP1-lacZ. Description: microbe, parasite or virus in culture. The class given is cell-based, Candida albicans. The conditions noted are these: Candida albicans, read-out: C. albicans STAT IC50, stationary phase growth invasion assay.
For the next test, the system named is C. albicans. The experiment in a line: C. albicans overnight growth inhibition. The class given is cell-based, Candida albicans. Further details: concentration or dose not given beside the values.
The subject of a further test is C. albicans (MC303). The experiment in a line: C. albicans morphology assay (hyphae scored 1-5). The conditions noted are these: invasion morphology phenotype, test compound at 10 μM, scale 1-5.

“And” between values parts separate entries of the source, which are not always exact repeats. Equal entries are not always repeated.

In general, IC50 refers to the concentration needed to halve the response being measured.

Procedure for C. albicans (MC303): In this assay, described in greater detail below, the morphology of cells was assessed and scored on a 1-5 scale. A score of 1 was assigned to non-hyphal cells, “yeast-like” cells and budding cells, and a score of 5 was assigned to cells having many, relatively long (wild-type) hyphae.
A frozen stock culture was prepared by streaking C. albicans (MC303: ura3 Δ:: imm434/ura3Δ:: imm434 arg4::hisG/arg4::hisG ade2:: URA3:.pTEF1-lacZ/ADE2 hisl::hisG/HIS1 gal1::ARG4/GAL1) cells on a YPD agar plate and grown at 30° C. for 14-18 h. An isolated colony was added to 5 mL of YPD broth and grown on a roller drum (60 rpm) for 14-18 h at 30° C. Next, 600 μL of culture were aliquotted into 1 mL of 25% glycerol, and the tubes are stored at −80° C.
Frozen MC303 C. albicans cell stock was struck for isolation of a single colony using a sterile loop on a YPD agar plate and grown at 30° C. for 14-18 h. A single colony was inoculated into 5 mL of YPD in a test tube and grown on a roller drum (60 rpm) for 2 days at 30° C. to late stationary phase (OD600˜30). For the assay, this stock was diluted to 2.5×10^5 cells/mL to make a 10× stock. Next, 10 μL of this cell stock was added to 80 μL of Inducing Media and 10 μL of 10× compound stock or DMSO in a Coming, tissue-culture treated, flat-bottom, microtiter plate. The plate was incubated at 37° C. for 24 h. Next, 10 μL of formaldehyde (37%) was added to each well and the cells were fixed for 10 min. The liquid was gently decanted from the plate and each well was examined under a microscope. Each well was photographed and observed cells are scored on a scale of 1-5. […] A 1 indicates cells are non-hyphal with only “yeast-like” cells and budding cells.
Scores of 2, 3, and 4 indicate shorter length or reduced quantity of hyphae when compared with WT (2 being very near non-hyphal and 4 being close to WT).

With `Cc1cc(NS(=O)(=O)c2ccc(-c3cc4ccccc4s3)cc2)no1`, the IC50 in test [1] was 1.76 µM; in test [2], greater than 20 µM. Besides, the “C. albicans Overnight Growth Inhibition” value with C. albicans was −1.8%. Also, in the test on C. albicans (MC303), the “C. albicans Phenotype Rating” value is 4 and 5.

Consider `Cc1cc(NS(=O)(=O)c2ccc(OCC3CC3)cc2)no1`, for which the values for the IC50 in test [1] and in test [2] were 0.051 µM and 11.5 µM, respectively. Besides, the “C. albicans Overnight Growth Inhibition” value with C. albicans is −7.3%. In the test with C. albicans (MC303), the “C. albicans Phenotype Rating” value is 5.

Regarding `CCCCC(F)(F)c1ccc(S(=O)(=O)Nc2cc(C)on2)cc1`, the values for the IC50 in test [1] and in test [2] were 2.02 µM and greater than 20 µM, respectively. Moreover, the “C. albicans Overnight Growth Inhibition” value with C. albicans is recorded as −1.6%. Further, in the test on C. albicans (MC303), the “C. albicans Phenotype Rating” value came out at 5.

Turning to `CCCSCc1ccc(S(=O)(=O)Nc2cc(C)on2)cc1`, the IC50 in test [1] is 0.656 µM; in test [2], greater than 20 µM. The “C. albicans Overnight Growth Inhibition” value with C. albicans is −21.3%. The “C. albicans Phenotype Rating” value in the test with C. albicans (MC303) is 5.

As to `Cc1cc(NS(=O)(=O)c2ccc(-c3ccc(F)cc3F)s2)no1`, the IC50 in test [1] is 3.36 µM; in test [2], greater than 20 µM. Besides, the “C. albicans Overnight Growth Inhibition” value in the test on C. albicans is given as −0.6%. Moreover, the “C. albicans Phenotype Rating” value in the test with C. albicans (MC303) is 5.

Turning to `CCCN(CCC)c1ccc(S(=O)(=O)Nc2cc(C)on2)cc1`, the IC50 in test [1] is 2.79 µM; in test [2], greater than 20 µM. Further, in the test on C. albicans, the “C. albicans Overnight Growth Inhibition” value is −2.8%. In addition, the “C. albicans Phenotype Rating” value with C. albicans (MC303) was 5.

Regarding `CCCCCc1ccc(S(=O)(=O)Nc2cc(C)on2)cc1`, the IC50 in test [1] was 0.00928 µM; in test [2], 1.41 µM. The “C. albicans Overnight Growth Inhibition” value in the test with C. albicans is recorded as −49.4%. Moreover, in the test on C. albicans (MC303), the “C. albicans Phenotype Rating” value is 4.

Turning to `Cc1cc(NS(=O)(=O)c2ccc(-c3sccc3C)cc2)no1`, the IC50 was 0.32 µM in test [1] and greater than 20 µM in test [2]. In addition, in the test on C. albicans, the “C. albicans Overnight Growth Inhibition” value came out at 11.5%. Also, the “C. albicans Phenotype Rating” value in the test on C. albicans (MC303) came to 5.

In the case of `Cc1cc(NS(=O)(=O)c2ccc(CC3C4CCC(C4)C3(C)C)cc2)no1` (stereo not shown), the IC50 in test [1] was 18 µM; in test [2], greater than 20 µM. The “C. albicans Overnight Growth Inhibition” value with C. albicans is listed as −0.6%. The “C. albicans Phenotype Rating” value in the test on C. albicans (MC303) amounted to 5.

For the molecule `Cc1cc(NS(=O)(=O)c2ccc(-c3ccc(C)s3)cc2)no1`, the results for the IC50 in test [1] and in test [2] were 0.05 µM and 4.91 µM, respectively. In the test on C. albicans, the “C. albicans Overnight Growth Inhibition” value turned out to be 22.4%.

Take `Cc1cc(NS(=O)(=O)c2ccc(CCCCCCCCCCO)cc2)no1`: the values for the IC50 in test [1] and in test [2] were 17.3 µM and greater than 20 µM, respectively. Besides, the “C. albicans Overnight Growth Inhibition” value in the test on C. albicans was found to be 71.0%. Besides, in the test with C. albicans (MC303), the “C. albicans Phenotype Rating” value was determined as 5.

For `Cc1cc(NS(=O)(=O)c2ccc(-c3cc(Cl)cc(Cl)c3)cc2)no1`, the IC50 was 1.48 µM in test [1] and greater than 20 µM in test [2]. In addition, the “C. albicans Overnight Growth Inhibition” value in the test on C. albicans is −3.1%. Also, the “C. albicans Phenotype Rating” value in the test on C. albicans (MC303) was determined as 5.

Regarding `CCCCc1cc(F)c(S(=O)(=O)Nc2cc(C)on2)cc1F`, the IC50 was 0.087 µM in test [1] and greater than 20 µM in test [2]. The “C. albicans Overnight Growth Inhibition” value with C. albicans is given as −14.5%. The “C. albicans Phenotype Rating” value with C. albicans (MC303) stood at 5.

On to `Cc1cc(NS(=O)(=O)c2ccc(-c3ccccc3F)cc2)no1`, for which the IC50 in test [1] was 0.35 µM; in test [2], greater than 20 µM. Besides, the “C. albicans Overnight Growth Inhibition” value with C. albicans is on record as −4.3%. Moreover, the “C. albicans Phenotype Rating” value in the test with C. albicans (MC303) was 5.

As for `Cc1cc(NS(=O)(=O)c2ccc(-c3cccc(Cl)c3Cl)cc2)no1`, the IC50 is 3.01 µM in test [1] and greater than 20 µM in test [2]. For the same molecule, the “C. albicans Overnight Growth Inhibition” value with C. albicans is −0.3%. In addition, the “C. albicans Phenotype Rating” value in the test on C. albicans (MC303) turned out to be 5.

On to `Cc1cc(NS(=O)(=O)c2ccc(-c3ccc(F)c(F)c3)cc2)no1`, for which the IC50 is 1.1 µM in test [1] and greater than 20 µM in test [2]. For the same molecule, in the test on C. albicans, the “C. albicans Overnight Growth Inhibition” value was determined as 8.8%. In the test on C. albicans (MC303), the “C. albicans Phenotype Rating” value is recorded as 5.

On to `Cc1cc(NS(=O)(=O)c2ccc3ccccc3c2)no1`, for which the IC50 was 2.26 µM in test [1] and greater than 20 µM in test [2]. Besides, the “C. albicans Overnight Growth Inhibition” value with C. albicans is given as −14.7%. Further, the “C. albicans Phenotype Rating” value in the test with C. albicans (MC303) was 5.

For the origin of these results see patent US20040106663A1, “Inhibitors of fungal invasion” (priority 2002, published 2004).
